Measurements: patent US20210308110A1, “ANTIVIRAL COMPOUNDS AND METHOD FOR TREATING RNA VIRAL INFECTION, PARTICULARLY COVID-19” (Senhwa Biosciences, Inc., priority 2020, published 2021)

Columns and labels:
SARS-CoV-2 [1] = experiment: SARS-CoV-2 plaque reduction neutralization test, plaque formation; format: cell-based; conditions: at 1.25 μM
[2] = Cell viability test by Cell Counting Kit-8 (CCK-8); conditions: African green monkey
SARS-CoV-2 [3] = experiment: SARS-CoV-2 infection of Vero E6 cells, quantified by N protein expression (IFA / PRNT); format: cell-based; conditions: Severe acute respiratory syndrome coronavirus 2, Vero C1008, Vero E6 cells pretreated 20 hr, infected at MOI=0.01 for 2 days, read-out: IC50 (anti-SARS-CoV-2 activity)
SARS-CoV-2 [4] = experiment: Mouse challenge with SARS-CoV-2, lung histopathology scoring; format: in vivo, AAV/hACE2 C57BL/6 mice; conditions: 50 mg/kg I.P., AAV/hACE2 mice, day 5 post-SARS-CoV-2 infection; score scale 0-5; 2 out of 5
in vitro = conditions: African green monkey

Compound: O=C(O)c1ccc2c(c1)nc(Nc1cccc(Cl)c1)c1ccncc12 [Compound A, Silmitasertib]
- reduction of plaque formation (SARS-CoV-2 [1]): 75%
- CC50 [2]: > 5 µM
- IC50 (SARS-CoV-2 [3]): 2.74 µM
- clinical score of lung histopathology (SARS-CoV-2 [4]): less than 2

Compound: O=C1NC(=O)/C(=C/c2cnn3c(NC4CC4)cc(Nc4cc(Cl)ccc4F)nc23)N1 [Compound B]
- reduction of plaque formation (SARS-CoV-2 [1]): 75%
- CC50 [2]: 5.9 µM
- IC50 (SARS-CoV-2 [3]): 0.126 µM

Compound: CC(N)C(=O)OCN1C(=O)N/C(=C\c2cnn3c(NC4CC4)cc(Nc4cc(Cl)ccc4F)nc23)C1=O (stereo not drawn) [Compound C]
- reduction of plaque formation (SARS-CoV-2 [1]): 75%
- CC50 [2]: 4.21 µM
- IC50 (SARS-CoV-2 [3]): 0.097 µM

Compound: CCC(CC)COC(=O)[C@H](C)N[P@](=O)(OC[C@H]1O[C@@](C#N)(c2ccc3c(N)ncnn23)[C@H](O)[C@@H]1O)Oc1ccccc1 [Compound E, Remdesivir, reference compound]
- IC50 (SARS-CoV-2 [3]): 0.83 µM
- CC50 (in vitro): > 5 µM
